Measurements reported in article PMC4843002, “Identification of pyrazolopyridazinones as PDEδ inhibitors” (Nature Communications, 2016).

Assays:
Capan-1 cells = test: RTCA growth profile; assay type: cell-based, human; conditions: Capan-1, doses up to 24 μM
Experimental: (§1) RTCA was performed using 16-well E-plates on the Dual Plate xCELLigence instrument (Roche Applied Science, Indianapolis, IN). This system measures a dimensionless parameter called cell index, which evaluates the ionic environment at an electrode/solution interface and integrates information on cell number. Depending on the cell line 5 × 10^3–1 × 10^4 cells were plated in each well of the 16-well plates in 200 μl of cell culture medium. After seeding, cells were allowed to settle for 30 min at room temperature before being inserted into the xCELLigence instrument in a humidified incubator at 37 °C with 10% CO2. For RTCA experiments assaying cells stably expressing the inducible shRNA transgene, cells were seeded onto the E-plates in medium supplemented with 200 ng ml^−1 doxycycline. […] The small-molecule inhibitors were added at indicated time points and in the indicated concentrations. […] All assays were performed in duplicates. The cell index was normalized to 1 at the time point of drug administration.

MIA PaCa-2 cells = test: RTCA growth profile; assay type: cell-based, human; conditions: MIA PaCa-2, doses higher than 3 μM
Experimental: as §1

AT2 (h) = molecular target: T1, AT2 (h) (Homo sapiens, UniProt P50052); test: Cerep binding, agonist radioligand; conditions: read-out: % Inhibition of Control Specific Binding
T1 construct: purchased Eurofins Pharma Discovery Services (CEREP diversity panel)
T1 sequence (P50052 whole entry): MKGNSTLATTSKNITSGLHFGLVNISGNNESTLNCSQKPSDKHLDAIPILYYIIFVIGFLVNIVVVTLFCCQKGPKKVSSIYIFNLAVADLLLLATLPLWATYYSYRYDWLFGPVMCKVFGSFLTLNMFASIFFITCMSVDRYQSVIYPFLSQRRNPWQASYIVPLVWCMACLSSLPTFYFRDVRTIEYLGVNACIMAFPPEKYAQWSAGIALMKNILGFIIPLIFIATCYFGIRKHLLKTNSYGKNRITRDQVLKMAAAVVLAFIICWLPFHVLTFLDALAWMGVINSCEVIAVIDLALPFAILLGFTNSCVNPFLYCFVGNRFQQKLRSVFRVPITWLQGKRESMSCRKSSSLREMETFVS

NMDA = test: Cerep binding, antagonist radioligand; conditions: 5 µM
[1] = molecular target: T2, N neuronal alpha 4beta 2 (h) (Homo sapiens, UniProt P17787+P43681); test: Cerep binding, agonist radioligand; conditions: read-out: % Inhibition of Control Specific Binding
T2 construct: purchased Eurofins Pharma Discovery Services (CEREP diversity panel)
T2 sequence (P43681 29-627 limits assumed): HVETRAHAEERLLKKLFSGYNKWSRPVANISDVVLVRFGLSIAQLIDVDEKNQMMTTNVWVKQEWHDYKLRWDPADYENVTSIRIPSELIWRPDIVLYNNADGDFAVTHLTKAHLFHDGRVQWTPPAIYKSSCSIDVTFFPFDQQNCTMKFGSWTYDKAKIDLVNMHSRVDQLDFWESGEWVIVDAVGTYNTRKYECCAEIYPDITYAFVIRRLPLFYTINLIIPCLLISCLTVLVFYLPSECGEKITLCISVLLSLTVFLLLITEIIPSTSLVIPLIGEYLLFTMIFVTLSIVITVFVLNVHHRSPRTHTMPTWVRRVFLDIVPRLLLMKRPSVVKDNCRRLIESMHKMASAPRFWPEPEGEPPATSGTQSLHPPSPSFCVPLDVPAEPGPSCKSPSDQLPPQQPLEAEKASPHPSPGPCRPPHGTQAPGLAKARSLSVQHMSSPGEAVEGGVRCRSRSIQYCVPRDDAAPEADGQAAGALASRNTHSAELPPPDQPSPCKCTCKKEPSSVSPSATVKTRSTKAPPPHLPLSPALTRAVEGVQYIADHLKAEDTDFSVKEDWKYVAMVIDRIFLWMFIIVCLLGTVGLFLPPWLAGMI
T2 sequence (P17787 26-502): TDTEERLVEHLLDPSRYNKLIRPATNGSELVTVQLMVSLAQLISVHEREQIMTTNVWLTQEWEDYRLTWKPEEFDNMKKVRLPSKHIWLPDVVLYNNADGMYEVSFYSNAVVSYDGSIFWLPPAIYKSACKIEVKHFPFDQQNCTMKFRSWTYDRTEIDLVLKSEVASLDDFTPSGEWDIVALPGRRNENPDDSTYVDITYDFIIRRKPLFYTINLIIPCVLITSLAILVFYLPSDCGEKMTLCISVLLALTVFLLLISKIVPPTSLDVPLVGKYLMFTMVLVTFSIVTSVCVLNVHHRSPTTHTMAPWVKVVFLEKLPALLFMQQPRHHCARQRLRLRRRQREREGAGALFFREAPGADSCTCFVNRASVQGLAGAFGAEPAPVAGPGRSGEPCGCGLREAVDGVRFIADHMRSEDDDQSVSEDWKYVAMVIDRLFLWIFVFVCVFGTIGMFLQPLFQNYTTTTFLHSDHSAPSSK

opioid (non-selective) = test: Cerep binding, antagonist radioligand; conditions: 5 µM
IP (PGI2) (h) = molecular target: T3, IP (PGI2) (h) (Homo sapiens, UniProt P43119); test: Cerep binding, agonist radioligand; conditions: read-out: % Inhibition of Control Specific Binding
T3 construct: purchased Eurofins Pharma Discovery Services (CEREP diversity panel)
T3 sequence (P43119 whole entry): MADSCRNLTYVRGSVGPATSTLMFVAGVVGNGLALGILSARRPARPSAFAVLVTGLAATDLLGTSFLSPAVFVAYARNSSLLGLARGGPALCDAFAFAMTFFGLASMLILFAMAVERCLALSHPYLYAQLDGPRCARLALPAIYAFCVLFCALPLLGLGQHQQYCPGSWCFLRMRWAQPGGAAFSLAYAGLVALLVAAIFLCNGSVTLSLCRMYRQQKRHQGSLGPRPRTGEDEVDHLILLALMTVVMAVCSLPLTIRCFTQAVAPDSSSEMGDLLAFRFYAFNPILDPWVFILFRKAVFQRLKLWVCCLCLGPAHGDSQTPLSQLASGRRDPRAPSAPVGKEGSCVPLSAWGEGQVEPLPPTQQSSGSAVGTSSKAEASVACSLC

P2Y = test: Cerep binding, agonist radioligand; conditions: 5 µM
ER (non-selective) (h) = test: Cerep binding, agonist radioligand; set-up: species or system human; conditions: 5 µM
PR (h) = molecular target: T4, PR (h) (Homo sapiens, UniProt P06401); test: Cerep binding, agonist radioligand; conditions: read-out: % Inhibition of Control Specific Binding
T4 construct: purchased Eurofins Pharma Discovery Services (CEREP diversity panel)
T4 sequence (P06401 whole entry): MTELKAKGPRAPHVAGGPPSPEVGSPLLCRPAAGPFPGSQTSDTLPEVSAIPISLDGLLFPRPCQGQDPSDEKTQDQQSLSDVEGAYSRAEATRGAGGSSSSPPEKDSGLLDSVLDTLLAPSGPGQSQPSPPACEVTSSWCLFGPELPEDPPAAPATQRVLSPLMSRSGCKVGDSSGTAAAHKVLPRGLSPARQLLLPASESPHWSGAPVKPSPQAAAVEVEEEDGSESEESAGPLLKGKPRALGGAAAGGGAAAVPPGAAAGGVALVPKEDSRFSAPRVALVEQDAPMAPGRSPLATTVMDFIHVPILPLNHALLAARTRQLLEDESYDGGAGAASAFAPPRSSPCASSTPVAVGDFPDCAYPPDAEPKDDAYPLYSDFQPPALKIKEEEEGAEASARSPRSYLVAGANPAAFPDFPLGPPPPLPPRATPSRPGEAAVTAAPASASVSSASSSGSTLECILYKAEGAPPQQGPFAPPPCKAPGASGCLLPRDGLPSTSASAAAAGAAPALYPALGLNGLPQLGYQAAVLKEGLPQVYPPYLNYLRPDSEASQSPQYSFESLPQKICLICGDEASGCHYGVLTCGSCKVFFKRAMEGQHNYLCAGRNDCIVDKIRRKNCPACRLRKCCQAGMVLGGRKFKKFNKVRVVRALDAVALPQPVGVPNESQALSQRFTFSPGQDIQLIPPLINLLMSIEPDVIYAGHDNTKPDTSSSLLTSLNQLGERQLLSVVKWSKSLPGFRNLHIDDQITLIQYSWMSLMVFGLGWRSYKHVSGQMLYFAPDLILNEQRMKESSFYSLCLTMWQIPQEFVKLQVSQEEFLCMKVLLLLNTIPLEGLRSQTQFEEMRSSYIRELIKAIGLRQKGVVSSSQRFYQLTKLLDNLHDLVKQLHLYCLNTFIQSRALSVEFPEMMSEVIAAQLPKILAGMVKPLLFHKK

TRH1 (h) = molecular target: T5, TRH1 (h) (Homo sapiens, UniProt P34981); test: Cerep binding, agonist radioligand; conditions: read-out: % Inhibition of Control Specific Binding
T5 construct: purchased Eurofins Pharma Discovery Services (CEREP diversity panel)
T5 sequence (P34981 whole entry): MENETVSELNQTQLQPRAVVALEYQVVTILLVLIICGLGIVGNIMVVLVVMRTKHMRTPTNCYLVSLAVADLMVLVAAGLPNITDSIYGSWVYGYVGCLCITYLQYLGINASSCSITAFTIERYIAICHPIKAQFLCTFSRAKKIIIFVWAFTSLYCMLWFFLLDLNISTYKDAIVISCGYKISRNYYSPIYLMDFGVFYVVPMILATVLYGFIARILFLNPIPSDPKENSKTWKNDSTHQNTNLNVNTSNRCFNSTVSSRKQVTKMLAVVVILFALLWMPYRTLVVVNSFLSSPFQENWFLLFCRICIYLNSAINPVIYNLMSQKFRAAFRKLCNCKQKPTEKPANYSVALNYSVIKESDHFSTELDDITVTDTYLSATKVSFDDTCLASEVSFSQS

KV channel = test: Cerep binding, antagonist radioligand; conditions: 5 µM
[2] = molecular target: T6, phosphatase 1B (h) (PTP1B) (Homo sapiens, UniProt P18031); test: Cerep enzyme and cell-based assays; assay type: biochemical; conditions: read-out: % Inhibition of Control Values
T6 construct: Eurofins Pharma Discovery Services (CEREP diversity panel, outsourced assay)
T6 sequence (P18031 whole entry): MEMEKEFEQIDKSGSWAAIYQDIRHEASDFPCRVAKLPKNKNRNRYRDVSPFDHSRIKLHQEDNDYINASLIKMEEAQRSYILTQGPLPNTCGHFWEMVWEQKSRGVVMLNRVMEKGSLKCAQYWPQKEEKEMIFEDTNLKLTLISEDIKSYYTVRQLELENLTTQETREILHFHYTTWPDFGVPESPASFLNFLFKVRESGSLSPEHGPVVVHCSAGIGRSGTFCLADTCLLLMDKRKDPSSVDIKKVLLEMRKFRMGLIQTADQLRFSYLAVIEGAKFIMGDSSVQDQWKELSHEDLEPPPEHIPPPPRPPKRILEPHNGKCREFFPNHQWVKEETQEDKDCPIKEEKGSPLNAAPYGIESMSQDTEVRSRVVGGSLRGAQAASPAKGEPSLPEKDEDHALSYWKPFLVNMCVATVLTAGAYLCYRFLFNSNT

GABA transaminase = molecular target: T7, GABA transaminase (Rattus norvegicus, UniProt P50554); test: Cerep enzyme and cell-based assays; assay type: biochemical; conditions: read-out: % Inhibition of Control Values
T7 construct: Eurofins Pharma Discovery Services (CEREP diversity panel, outsourced assay)

ATPase (Na+/K+) = test: Cerep enzyme and cell-based assays; assay type: biochemical; conditions: 5 µM
HDAC3 (h) = molecular target: T8, HDAC3 (h) (Homo sapiens, UniProt O15379); test: Cerep enzyme and cell-based assays; assay type: biochemical; conditions: read-out: % Inhibition of Control Values
T8 construct: Eurofins Pharma Discovery Services (CEREP diversity panel, outsourced assay)
T8 sequence (O15379 whole entry): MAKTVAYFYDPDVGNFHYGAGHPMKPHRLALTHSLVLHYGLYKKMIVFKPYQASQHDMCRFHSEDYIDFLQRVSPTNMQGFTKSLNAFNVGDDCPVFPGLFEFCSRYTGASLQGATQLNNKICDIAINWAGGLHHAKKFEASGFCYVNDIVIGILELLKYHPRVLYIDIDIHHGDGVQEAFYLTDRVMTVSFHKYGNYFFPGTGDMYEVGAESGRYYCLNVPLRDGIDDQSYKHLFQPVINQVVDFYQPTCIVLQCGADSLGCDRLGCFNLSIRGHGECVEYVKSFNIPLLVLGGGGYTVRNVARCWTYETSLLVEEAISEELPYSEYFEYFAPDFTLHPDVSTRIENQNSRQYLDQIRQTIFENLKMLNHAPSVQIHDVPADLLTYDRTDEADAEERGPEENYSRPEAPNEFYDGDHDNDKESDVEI
T8 sequence (Q9Y618 395-489 partner limits assumed): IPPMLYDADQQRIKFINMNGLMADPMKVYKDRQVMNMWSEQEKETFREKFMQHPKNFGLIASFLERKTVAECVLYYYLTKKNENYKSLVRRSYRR

[3] = mouse, in vivo
Experimental: (§2) Determination of pharmacokinetic properties in vivo
50% physiological saline / 40% water.
(§3) The regression equation of the calibration curve was used to calculate plasma concentrations. Pharmacokinetic parameters were calculated using the PKSolver
(§4) Animal experiments and care were conducted at Synovo GmbH (Tübingen, Germany) in accordance with the guidelines of institutional authorities and approved

in vivo = conditions: female, NMRI, mouse, 3 mg/kg
Experimental: as §2
50% physiological saline / 40% water.
as §3, §4

Erk phosphorylation = test: western blot, Erk phosphorylation in PANC-1
Experimental: (§5) To examine whether PDEδ inhibition by Deltarasin and Deltazinone 1 downregulates the signal transduction via these pathways, we examined the phosphorylation of extracellular signal regulated kinase (Erk) and S6 Ribosomal Protein (S6P) in the oncogenic KRas-dependent Panc-Tu-1 and KRas-independent PANC-1 cells. […] Cells were lysed with RIPA-buffer (20 mM Tris pH 7.5, 150 mM NaCl, 0.5 mM Na2 EDTA, 1 % sodium deoxycholate, 0.1% sodium dodecyl sulfate, 1% IGEPAL supplemented with Complete Mini EDTA-free protease inhibitor (Roche Applied Science) and 1% phosphatase inhibitor cocktail 2 and 3 (P5726 and P0044, Sigma Aldrich), scraped off after 5 min on ice and centrifuged at 14,000g for 20 min at 4 °C. SDS–polyacrylamide gel electrophoresis was carried out with 10–25 μg of whole-cell lysate from each sample. The gels were blotted onto polyvinylidene difluoride membrane (Millipore) and blocked for 1 h at room temperature. […] Blots were scanned on a LI-COR Odyssey imaging system.
(§6) Western blots were quantified using ImageJ. The background of the blots was subtracted by applying the rolling ball subtraction with a radius of 50 pixels. Afterwards the integrated intensity of the bands was measured.

S6P phosphorylation = test: western blot, S6P phosphorylation in Panc-Tu-I; conditions: for EGF-induced S6P phosphorylation: 1 h, 5 μM Deltarasin or 20 μM Deltazinone 1, 5 min EGF
Experimental: as §5, §6

[4] = molecular target: T9, interaction between mCitrine-KRas and mCherry-PDEδ (Homo sapiens, UniProt O43924); test: FLIM-FRET, mCitrine-KRas/mCherry-PDEδ in MDCK cells after Bryostatin; assay type: cell-based, canine; conditions: 5 μM inhibitor after 1 μM Bryostatin-1, MDCK cells
T9 construct: expressed in transfected cells; host or cells: MDCK cells, transient transfection
T9 sequence (O43924 whole entry): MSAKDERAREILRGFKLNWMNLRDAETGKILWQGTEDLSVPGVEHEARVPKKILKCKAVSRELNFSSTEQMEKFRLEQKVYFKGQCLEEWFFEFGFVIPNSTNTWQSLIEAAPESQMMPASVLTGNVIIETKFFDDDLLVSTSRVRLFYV
Source text: To measure whether both inhibitors also affect the interaction of KRas with PDEδ, MDCK cells were transiently transfected with mCitrine-KRas and mCherry-PDEδ. […] To increase the fraction of KRas that interacts with PDEδ, the Protein Kinase C (PKC) activator Bryostatin, which induces serine (S181) phosphorylation on KRas[17], was applied, resulting in a reduced electrostatic interaction with the PM and increased cytosolic pool of mCitrine-KRas.
Fluorescence lifetime images were acquired using a confocal laser-scanning microscope (FV1000, Olympus) equipped with a time-correlated single-photon counting module (LSM Upgrade Kit, Picoquant). For detection of the donor (mCitrine), the sample was excited using a 470-nm diode laser (LDH 470, Picoquant) at a 36-MHz repetition frequency. […] Photons were detected using a single-photon counting avalanche photodiode (PDM Series, MPD) and timed using a single-photon counting module (PicoHarp 300, Picoquant).
Intensity thresholds were applied to segment the cells from the background fluorescence. Data were analysed via global analysis[23] to obtain images of the molar fraction (α) of interacting mCitrine-Rheb with mCherry-PDEδ. […] Dose–response relationships were determined by plotting obtained α per addition, using equation:

acetylcholinesterase (h) = molecular target: T10, acetylcholinesterase (h) (Homo sapiens, UniProt P22303); test: Cerep enzyme and cell-based assays; assay type: biochemical; conditions: read-out: % Inhibition of Control Values
T10 construct: Eurofins Pharma Discovery Services (CEREP diversity panel, outsourced assay)

MAO-A (h) = molecular target: T11, MAO-A (h) (Homo sapiens, UniProt P21397); test: Cerep enzyme and cell-based assays; assay type: biochemical; conditions: read-out: % Inhibition of Control Values
T11 construct: Eurofins Pharma Discovery Services (CEREP diversity panel, outsourced assay)

[5] = molecular target: T12, MAO-B (h) recombinant enzyme (Homo sapiens, UniProt P27338); test: Cerep enzyme and cell-based assays; assay type: biochemical; conditions: read-out: % Inhibition of Control Values
T12 construct: Eurofins Pharma Discovery Services (CEREP diversity panel, outsourced assay)
T12 sequence (P27338 whole entry): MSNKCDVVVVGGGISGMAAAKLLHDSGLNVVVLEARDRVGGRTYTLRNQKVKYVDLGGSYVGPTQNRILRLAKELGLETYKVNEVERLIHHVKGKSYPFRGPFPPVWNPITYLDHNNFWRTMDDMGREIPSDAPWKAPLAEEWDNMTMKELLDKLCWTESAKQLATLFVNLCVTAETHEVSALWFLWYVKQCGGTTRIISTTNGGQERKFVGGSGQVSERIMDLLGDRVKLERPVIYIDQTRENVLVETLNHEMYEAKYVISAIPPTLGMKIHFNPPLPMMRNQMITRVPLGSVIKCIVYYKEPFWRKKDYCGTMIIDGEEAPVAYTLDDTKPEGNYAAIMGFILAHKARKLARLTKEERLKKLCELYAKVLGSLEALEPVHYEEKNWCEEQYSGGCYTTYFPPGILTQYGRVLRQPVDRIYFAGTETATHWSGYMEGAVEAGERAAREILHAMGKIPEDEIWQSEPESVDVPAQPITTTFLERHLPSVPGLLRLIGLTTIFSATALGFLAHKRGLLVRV

tyrosine hydroxylase = molecular target: T13, tyrosine hydroxylase (Rattus norvegicus, UniProt P04177); test: Cerep enzyme and cell-based assays; assay type: biochemical; conditions: read-out: % Inhibition of Control Values
T13 construct: Eurofins Pharma Discovery Services (CEREP diversity panel, outsourced assay)

CENP-E (h) = molecular target: T14, CENP-E (h) (Homo sapiens, UniProt Q02224); test: Cerep enzyme and cell-based assays; assay type: biochemical; conditions: read-out: % Inhibition of Control Values
T14 construct: Eurofins Pharma Discovery Services (CEREP diversity panel, outsourced assay)

HDAC6 (h) = molecular target: T15, HDAC6 (h) (Homo sapiens, UniProt Q9UBN7); test: Cerep enzyme and cell-based assays; assay type: biochemical; conditions: read-out: % Inhibition of Control Values
T15 construct: Eurofins Pharma Discovery Services (CEREP diversity panel, outsourced assay)

HDAC11 (h) = molecular target: T16, HDAC11 (h) (Homo sapiens, UniProt Q96DB2); test: Cerep enzyme and cell-based assays; assay type: biochemical; conditions: read-out: % Inhibition of Control Values
T16 construct: Eurofins Pharma Discovery Services (CEREP diversity panel, outsourced assay)

[6] = molecular target: T17, sirtuin 1 (h) (inhibitor effect) (Homo sapiens, UniProt Q96EB6); test: Cerep enzyme and cell-based assays; assay type: biochemical; conditions: read-out: % Inhibition of Control Values
T17 construct: Eurofins Pharma Discovery Services (CEREP diversity panel, outsourced assay)

Cc1ccc(-n2nc3c(=O)n(CCCC(=O)NCC(C)c4ccccc4)nc(C)c3c2C)cc1 (stereo not shown) [2k]
effect on growth (Capan-1 cells): strong growth inhibition but not cell death | time after administration at which decreasing cell indices indicated cell death (MIA PaCa-2 cells): ~40 h | inhibition at 5 µM (AT2 (h)): 10% | % Inhibition of Control Specific Binding (NMDA): 1% | inhibition at 5 µM [1]: -8% | % Inhibition of Control Specific Binding (opioid (non-selective)): 42% | inhibition at 5 µM (IP (PGI2) (h)): -4% | % Inhibition of Control Specific Binding (P2Y): 16% | % Inhibition of Control Specific Binding (ER (non-selective) (h)): -15% | inhibition at 5 µM (PR (h)): 3% | inhibition at 5 µM (TRH1 (h)): 7% | % Inhibition of Control Specific Binding (KV channel): -8% | inhibition at 5 µM [2]: 2% | inhibition at 5 µM (GABA transaminase): 0% | % Inhibition of Control Values (ATPase (Na+/K+)): 7% | inhibition at 5 µM (HDAC3 (h)): 0% | metabolism in mice [3]: rapidly metabolized | Tmax (in vivo; ip): 4.8 min | C0 (in vivo; iv): 3380 ng/mL | Vd (in vivo; iv): 1.18 L/kg | clearance (in vivo; iv): 30.8 mL/min/kg | AUC(0-inf) (in vivo; iv, AUC 0-inf): 1620 ng·h/mL | AUC(0-t) (in vivo; iv, AUC 0-t): 1620 ng·h/mL | half-life (in vivo; iv, t1/2): 21 min | EGF-induced Erk phosphorylation (Erk phosphorylation; PANC-1, 20 μM, longer incubation times (>3 h)): remained unaffected | EGF-induced Erk phosphorylation (Erk phosphorylation; PANC-1, 1 h, 5 μM Deltarasin or 20 μM Deltazinone 1, 5 min EGF): did not significantly affect | S6P phosphorylation (S6P phosphorylation; 20 μM, longer incubation times (>3 h)): further decreased | EGF-induced S6P phosphorylation (S6P phosphorylation): reduced S6P phosphorylation

c1ccc(Cn2c(-c3ccc(OC[C@H](C4CCNCC4)n4c(-c5ccccc5)nc5ccccc54)cc3)nc3ccccc32)cc1 [Deltarasin, reference compound]
interaction between mCitrine-KRas and mCherry-PDEδ [4]: abolished the interaction | inhibition at 5 µM (AT2 (h)): 49% | % Inhibition of Control Specific Binding (NMDA): 11% | inhibition at 5 µM [1]: -10% | % Inhibition of Control Specific Binding (opioid (non-selective)): 12% | inhibition at 5 µM (IP (PGI2) (h)): 8% | % Inhibition of Control Specific Binding (P2Y): 13% | % Inhibition of Control Specific Binding (ER (non-selective) (h)): -19% | inhibition at 5 µM (PR (h)): 41% | inhibition at 5 µM (TRH1 (h)): 42% | % Inhibition of Control Specific Binding (KV channel): -2% | inhibition at 5 µM (acetylcholinesterase (h)): 9% | inhibition at 5 µM (MAO-A (h)): 1% | inhibition at 5 µM [5]: 7% | inhibition at 5 µM (tyrosine hydroxylase): 24% | inhibition at 5 µM (CENP-E (h)): 6% | inhibition at 5 µM (HDAC3 (h)): 23% | inhibition at 5 µM (HDAC6 (h)): 3% | inhibition at 5 µM (HDAC11 (h)): 37% | inhibition at 5 µM [6]: 4% | EGF-induced S6P phosphorylation (S6P phosphorylation): reduced in both lines
